{"source": "paper PMC11062922", "about": "(Nature Chemical Biology, 2023)", "key": {"PRKACG": {"biological_target": "T1, PRKACG (Homo sapiens, UniProt P22612)", "T1 construct": "endogenous in cells", "assay": "Kinobeads competition binding, Lestaurtinib control replicates: PRKACG", "settings": "read-out: Lestaurtinib Drugmatrix value; Gene Name PRKACG; one column per experiment number and replicate (R1-R3)"}, "PIM1": {"biological_target": "T2, PIM1 (Homo sapiens, UniProt P11309)", "T2 construct": "a mixture of lysates from five cancer cell lines; endogenous in cells", "assay": "Kinobeads competition binding, Lestaurtinib control replicates: PIM1", "settings": "read-out: Lestaurtinib Drugmatrix value; Gene Name PIM1; one column per experiment number and replicate (R1-R3)"}, "[1]": {"biological_target": "T3, endogenous kinases and other proteins enriched by Kinobeads from mixed lysates of K-562, COLO-205, MV-4-11, SK-N-BE(2) and OVCAR-8 (Homo sapiens, UniProt Q15569)", "T3 construct": "endogenous in cells", "assay": "Kinobeads competition binding profiling, two doses (100 nM and 1 µM);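 also: inhibitor preincubated 45 min at 4 °C in cell lysate, then bead pulldown. Bound protein quantified by label-free mass spectrometry relative to DMSO vehicle control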", "settings": "read-out: Lestaurtinib Drugmatrix value, Gene Name TESK1; target TESK1; one Lestaurtinib control experiment/replicate (R1-R3)"}, "[2]": {"tested_on": "endogenous kinases and other proteins enriched by Kinobeads from mixed lysates of K-562, COLO-205, MV-4-11, SK-N-BE(2) and OVCAR-8", "assay": "Kinobeads competition binding profiling, two doses (100 nM and 1 µM)", "set-up": "species or system human"}, "[3]": {"biological_target": "T4, endogenous kinases and other proteins enriched by Kinobeads from mixed lysates of K-562, COLO-205, MV-4-11, SK-N-BE(2) and OVCAR-8 (Homo sapiens, UniProt Q13882)", "T4 construct": "endogenous in cells", "assay": "Kinobeads competition binding profiling, two doses (100 nM and 1 µM)", "settings": "read-out: Lestaurtinib Drugmatrix value, Gene Name PTK6; target PTK6; one Lestaurtinib control experiment/replicate (R1-R3)"}, "[4]": {"biological_target": "T5, endogenous kinases and other proteins enriched by Kinobeads from mixed lysates of K-562, COLO-205, MV-4-11, SK-N-BE(2) and OVCAR-8 (Homo sapiens, UniProt P42680)", "T5 construct": "to maximize the representation of endogenous proteins; endogenous in cells", "assay": "Kinobeads competition binding profiling, two doses (100 nM and 1 µM)", "settings": "read-out: Lestaurtinib Drugmatrix value, Gene Name TEC; target TEC; one Lestaurtinib control experiment/replicate (R1-R3)"}, "PIP4K2C": {"biological_target": "T6, PIP4K2C (Homo sapiens, UniProt Q8TBX8)", "T6 construct": "a mixture of lysates from five cancer cell lines; endogenous in cells", "T6 sequence (Q8TBX8 1-421)": "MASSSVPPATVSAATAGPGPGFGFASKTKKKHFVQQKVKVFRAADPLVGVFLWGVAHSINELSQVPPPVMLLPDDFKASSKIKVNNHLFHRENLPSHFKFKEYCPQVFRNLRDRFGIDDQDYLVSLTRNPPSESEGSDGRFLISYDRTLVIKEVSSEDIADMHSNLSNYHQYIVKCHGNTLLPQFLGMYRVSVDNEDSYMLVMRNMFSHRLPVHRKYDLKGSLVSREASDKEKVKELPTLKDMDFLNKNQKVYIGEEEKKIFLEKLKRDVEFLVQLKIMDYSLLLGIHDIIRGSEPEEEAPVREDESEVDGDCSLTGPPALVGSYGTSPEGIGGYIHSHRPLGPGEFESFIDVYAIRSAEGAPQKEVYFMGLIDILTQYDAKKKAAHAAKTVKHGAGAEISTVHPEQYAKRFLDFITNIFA", "assay": "Kinobeads competition binding, Lestaurtinib control replicates: PIP4K2C", "settings": "read-out: Lestaurtinib Drugmatrix value; Gene Name PIP4K2C; one column per experiment number and replicate (R1-R3)"}, "ABL2": {"biological_target": "T7, ABL2 (Homo sapiens, UniProt P42684)", "T7 construct": "endogenous in cells", "assay": "Kinobeads two-dose competition binding: ABL2", "settings": "read-out: Lestaurtinib Drugmatrix value, Gene Name ABL2"}, "[5]": {"biological_target": "T8, endogenous kinases and other proteins enriched by Kinobeads from mixed lysates of K-562, COLO-205, MV-4-11, SK-N-BE(2) and OVCAR-8 (Homo sapiens, UniProt Q13163)", "T8 construct": "endogenous in cells", "assay": "Kinobeads competition binding profiling, two doses (100 nM and 1 µM)", "settings": "MEK5"}, "[6]": {"biological_target": "T9, endogenous kinases and other proteins enriched by Kinobeads from mixed lysates of K-562, COLO-205, MV-4-11, SK-N-BE(2) and OVCAR-8 (Homo sapiens, UniProt P29597)", "T9 construct": "endogenous in cells", "assay": "Kinobeads competition binding profiling, two doses (100 nM and 1 µM)", "settings": "TYK2(JH2domain-pseudokinase)"}, "[7]": {"biological_target": "T10, endogenous kinases and other proteins enriched by Kinobeads from mixed lysates of K-562, COLO-205, MV-4-11, SK-N-BE(2) and OVCAR-8 (Homo sapiens, UniProt O75716)", "T10 construct": "endogenous in cells", "assay": "Kinobeads competition binding profiling, two doses (100 nM and 1 µM)", "settings": "STK16"}, "[8]": {"biological_target": "T11, endogenous kinases and other proteins enriched by Kinobeads from mixed lysates of K-562, COLO-205, MV-4-11, SK-N-BE(2) and OVCAR-8 (Homo sapiens, UniProt P22694)", "T11 construct": "endogenous in cells", "assay": "Kinobeads competition binding profiling, two doses (100 nM and 1 µM)", "settings": "PKAC-beta"}, "[9]": {"biological_target": "T12, endogenous kinases and other proteins enriched by Kinobeads from mixed lysates of K-562, COLO-205, MV-4-11, SK-N-BE(2) and OVCAR-8 (Homo sapiens, UniProt P49760)", "T12 construct": "endogenous in cells", "assay": "Kinobeads competition binding profiling, two doses (100 nM and 1 µM)", "settings": "CLK2"}, "[10]": {"biological_target": "T13, endogenous kinases and other proteins enriched by Kinobeads from mixed lysates of K-562, COLO-205, MV-4-11, SK-N-BE(2) and OVCAR-8 (Homo sapiens, UniProt P54646)", "T13 construct": "endogenous in cells", "assay": "Kinobeads competition binding profiling, two doses (100 nM and 1 µM)", "settings": "AMPK-alpha2"}, "[11]": {"biological_target": "T14, endogenous kinases and other proteins enriched by Kinobeads from mixed lysates of K-562, COLO-205, MV-4-11, SK-N-BE(2) and OVCAR-8 (Homo sapiens, UniProt Q13131)", "T14 construct": "endogenous in cells", "assay": "Kinobeads competition binding profiling, two doses (100 nM and 1 µM)", "settings": "AMPK-alpha1"}, "[12]": {"biological_target": "T15, endogenous kinases and other proteins enriched by Kinobeads from mixed lysates of K-562, COLO-205, MV-4-11, SK-N-BE(2) and OVCAR-8 (Homo sapiens, UniProt Q9H2G2)", "T15 construct": "endogenous in cells", "assay": "Kinobeads competition binding profiling, two doses (100 nM and 1 µM)", "settings": "SLK"}, "[13]": {"biological_target": "T16, endogenous kinases and other proteins enriched by Kinobeads from mixed lysates of K-562, COLO-205, MV-4-11, SK-N-BE(2) and OVCAR-8 (Homo sapiens, UniProt Q16584)", "T16 construct": "endogenous in cells", "assay": "Kinobeads competition binding profiling, two doses (100 nM and 1 µM)", "settings": "MLK3"}, "[14]": {"biological_target": "T17, endogenous kinases and other proteins enriched by Kinobeads from mixed lysates of K-562, COLO-205, MV-4-11, SK-N-BE(2) and OVCAR-8 (Homo sapiens, UniProt Q9HC98)", "T17 construct": "endogenous in cells", "assay": "Kinobeads competition binding profiling, two doses (100 nM and 1 µM)", "settings": "NEK6"}, "SPR": {"biological_target": "T18, SPR (Homo sapiens, UniProt P35270)", "T18 construct": "endogenous in cells", "assay": "Kinobeads full dose-response competition binding: SPR", "settings": "Gene Name SPR"}}}
{"smiles": "C[C@]12O[C@H](C[C@]1(O)CO)n1c3ccccc3c3c4c(c5c6ccccc6n2c5c31)CNC4=O", "note": "[Lestaurtinib]", "values": [{"measurement": "potency estimated from few doses", "setting": "PRKACG", "value": 769, "unit": "nM"}, {"measurement": "potency estimated from few doses", "setting": "PIM1", "value": 860, "unit": "nM"}, {"measurement": "potency estimated from few doses", "setting": "[1]", "value": 622, "unit": "nM"}, {"measurement": "number of targets in the Kinobead assay", "setting": "[2]", "value": 76}, {"measurement": "potency estimated from few doses", "setting": "[3]", "value": 533, "unit": "nM"}, {"measurement": "potency estimated from few doses", "setting": "[4]", "value": 895, "unit": "nM"}, {"measurement": "potency estimated from few doses", "setting": "PIP4K2C", "value": 86.5, "unit": "nM"}, {"measurement": "potency estimated from few doses", "setting": "ABL2", "value": 340, "unit": "nM"}]}
{"smiles": "COc1cc(Nc2ncc3c(C)nc(-c4cc5ccccc5[nH]4)n3n2)cc(OC)c1OC", "note": "[GW869516X]", "values": [{"measurement": "Kinobeads Data", "setting": "[5]", "value": "no target"}, {"measurement": "Kinobeads Data", "setting": "[6]", "value": "no target"}, {"measurement": "Kinobeads Data", "setting": "[7]", "value": "no target"}, {"measurement": "Kinobeads Data", "setting": "[8]", "value": "no target"}, {"measurement": "Kinobeads Data", "setting": "[9]", "value": "no target"}, {"measurement": "Kinobeads Data", "setting": "[10]", "value": "no target"}, {"measurement": "Kinobeads Data", "setting": "[11]", "value": "no target"}, {"measurement": "Kinobeads Data", "setting": "[12]", "value": "no target"}, {"measurement": "Kinobeads Data", "setting": "[13]", "value": "no target"}, {"measurement": "Kinobeads Data", "setting": "[14]", "value": "no target"}]}
{"smiles": "NCc1ccc(-c2nc(-c3ccncc3)c(-c3ccc(Cl)c(O)c3)[nH]2)cc1", "note": "[SB-476429-A]", "values": [{"measurement": "Relative Intensity 0.3nM", "setting": "SPR; 0.3nM compound, DMSO = 1", "value": 0.9627}, {"measurement": "Relative Intensity 1nM", "setting": "SPR; 1nM compound, DMSO = 1", "value": 0.9101}, {"measurement": "Relative Intensity 3nM", "setting": "SPR; 3nM compound, DMSO = 1", "value": 0.8696}, {"measurement": "Relative Intensity 10nM", "setting": "SPR; 10nM compound, DMSO = 1", "value": 0.7693}, {"measurement": "Relative Intensity 30nM", "setting": "SPR; 30nM compound, DMSO = 1", "value": 0.5216}, {"measurement": "Relative Intensity 100nM", "setting": "SPR; 100nM compound, DMSO = 1", "value": 0.1442}, {"measurement": "Relative Intensity 300nM", "setting": "SPR; 300nM compound, DMSO = 1", "value": 0.02935}, {"measurement": "Relative Intensity 1000nM", "setting": "SPR; 1000nM compound, DMSO = 1", "value": 0.01082}, {"measurement": "Kd", "setting": "SPR; EC50 with Correction, doses in nM, read-out: apparent Kd", "value": 32.8, "unit": "nM"}, {"measurement": "EC50", "setting": "SPR; eight-dose curve fit, doses in nM", "value": 32.8, "unit": "nM"}]}
